Results from PubChem BioAssay (NCI).
Where “and” joins values, the source holds several entries; their conditions need not be identical. Identical values can stand only once.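 96-well plates; 48 h exposure; 5 concentrations. Endpoints by linear interpolation between flanking doses. Not reached: highest tested concentration assigned. GI50 = concentration required for 50% inhibition of growth. TGI marks complete inhibition of growth.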

Assays:
Assay in all cases: growth of human tumour cells (NCI), 48 h
[1] = test system: EKVX NSCLC
[2] = test system: HCT-116 colon
[3] = test system: RPMI-8226 leukemia
[4] = test system: KM12 colon
[5] = test system: A549 NSCLC
[6] = test system: MALME-3M melanoma
[7] = test system: SR leukemia
[8] = test system: SK-MEL-5 melanoma
[9] = test system: SNB-19 CNS
[10] = test system: HOP-92 NSCLC
[11] = test system: NCI-H226 lung
[12] = test system: BT-549 breast
[13] = test system: HL-60(TB) leukemia
[14] = test system: SK-MEL-2 melanoma
[15] = test system: M14 melanoma
[16] = test system: COLO 205 colon
[17] = test system: HOP-62 NSCLC
[18] = test system: SF-268 CNS
[19] = test system: HS 578T breast
[20] = test system: UACC-257 melanoma
[21] = test system: OVCAR-5 ovarian
[22] = test system: MCF7 breast
[23] = test system: K-562 leukemia
[24] = test system: RXF 393 renal
[25] = test system: PC-3 prostate
[26] = test system: OVCAR-3 ovarian
[27] = test system: UACC-62 melanoma
[28] = test system: LOX IMVI melanoma
[29] = test system: MDA-MB-435

## CCN1CCN(Cc2ccc(-c3cc4c(N[C@H](C)c5ccccc5)ncnc4[nH]3)cc2)CC1
[1]
  GI50: 0.308 µM
  TGI: > 10 µM
[2]
  GI50: 2.8 µM and 2.87 µM
  TGI: 14.4 µM and > 10 µM
[3]
  GI50: 3.54 µM and 2.13 µM
  TGI: 13.4 µM and 6.94 µM
[4]
  GI50: 3.84 µM and 3.5 µM
  TGI: 14.4 µM and > 10 µM
[5]
  GI50: 1.71 µM and 3.08 µM
  TGI: 13.1 µM and > 10 µM
[6]
  GI50: 1.92 µM and 1.78 µM
  TGI: 4.14 µM and 4.02 µM
[7]
  GI50: 2.34 µM and 2.05 µM
  TGI: 6.17 µM and 4.92 µM
[8]
  GI50: 1.76 µM and 1.72 µM
  TGI: 3.68 µM and 3.88 µM
[9]
  GI50: 6.11 µM and 4.04 µM
  TGI: 29.7 µM and > 10 µM
[10]
  GI50: 0.167 µM and 0.523 µM
  TGI: 4.21 µM and > 10 µM
[11]
  GI50: 3.03 µM and 7.73 µM
  TGI: 24.7 µM and > 10 µM
[12]
  GI50: 6.3 µM and > 10 µM
  TGI: 22.3 µM and > 10 µM
[13]
  GI50: 2.83 µM and 4 µM
  TGI: 7.91 µM and > 10 µM
[14]
  GI50: 4.86 µM and > 10 µM
  TGI: 17.4 µM and > 10 µM
[15]
  GI50: 1.84 µM and 1.92 µM
  TGI: 3.77 µM and 4.4 µM
[16]
  GI50: 1.9 µM and 1.73 µM
  TGI: 3.6 µM and 3.52 µM
[17]
  GI50: 3.52 µM and 3.53 µM
  TGI: 18.3 µM and > 10 µM
[18]
  GI50: 2.43 µM and 4.11 µM
  TGI: 18.7 µM and > 10 µM
[19]
  GI50: 2.1 µM and 0.763 µM
  TGI: 9.79 µM and 5.24 µM
[20]
  GI50: 1.76 µM and 1.83 µM
  TGI: 3.38 µM and 3.41 µM
[21]
  GI50: 0.708 µM and 1.61 µM
  TGI: 23.9 µM and > 10 µM
[22]
  GI50: 2.78 µM and 2.68 µM
  TGI: 15.9 µM and > 10 µM
[23]
  GI50: 0.49 µM and 0.626 µM
  TGI: 12.4 µM and > 10 µM
[24]
  GI50: 1.17 µM and 0.665 µM
  TGI: 4.27 µM and 3.82 µM
[25]
  GI50: 2.24 µM and 5.07 µM
  TGI: 18.7 µM and > 10 µM
[26]
  GI50: 3.78 µM and 2.05 µM
  TGI: 20.9 µM and > 10 µM
[27]
  GI50: 2.09 µM and 3.75 µM
  TGI: 5.36 µM and > 10 µM
[28]
  GI50: 1.51 µM and 1.24 µM
  TGI: 3.06 µM and 2.78 µM
[29]
  GI50: 1.95 µM and 2.74 µM
  TGI: 4.63 µM and 8.4 µM
